Square brackets hold non-standard residues; d marks the D form. Peptide text beside a SMILES is read from it. Ala(4-thiazolyl) = N[C@@H](Cc1cscn1)C(=O)O; 2Pal = N[C@@H](Cc1ccccn1)C(=O)O; 3Pal = N[C@@H](Cc1cccnc1)C(=O)O; 2Thi = N[C@@H](Cc1cccs1)C(=O)O
Experiments:
[1] = target: Kappa-type opioid receptor (Cavia porcellus, UniProt P41144); assay: Inhibition of [3H]- U 69593 from Opioid receptor kappa 1 of guinea pig brain
Mu-type opioid receptor = Mu-type opioid receptor (Cavia porcellus, UniProt P97266); assay: Inhibition of [3H]DAMGO binding to Opioid receptor mu 1 of guinea pig brain
Mu-type opioid receptor, sequence (P97266 whole entry): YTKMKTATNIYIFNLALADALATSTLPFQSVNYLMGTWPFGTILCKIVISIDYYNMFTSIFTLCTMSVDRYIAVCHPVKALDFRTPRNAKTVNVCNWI

Kappa-type opioid receptor, sequence (P41144 whole entry): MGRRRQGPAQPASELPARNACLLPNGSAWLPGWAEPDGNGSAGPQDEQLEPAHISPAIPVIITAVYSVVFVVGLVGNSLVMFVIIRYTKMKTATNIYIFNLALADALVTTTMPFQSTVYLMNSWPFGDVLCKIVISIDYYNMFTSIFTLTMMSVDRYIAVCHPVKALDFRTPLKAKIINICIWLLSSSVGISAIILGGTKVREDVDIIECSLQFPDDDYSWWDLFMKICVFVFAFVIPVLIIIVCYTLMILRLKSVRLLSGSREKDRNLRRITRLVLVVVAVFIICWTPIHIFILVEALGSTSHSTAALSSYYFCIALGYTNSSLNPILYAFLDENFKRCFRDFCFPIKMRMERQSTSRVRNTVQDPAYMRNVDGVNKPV

CC(C)[C@H](NC(=O)[C@H](CC(=O)O)NC(=O)[C@H](Cc1cscn1)NC(=O)[C@H](C)NC(=O)[C@@H](N)Cc1ccc(O)cc1)C(=O)N[C@H](C(=O)NCC(N)=O)C(C)C (H-YA[Ala(4-thiazolyl)]DVVG-NH2)
Ki [1]: > 10 µM
Ki (Mu-type opioid receptor): 2.8 µM

CC(NC(=O)[C@@H](N)Cc1ccc(O)cc1)C(=O)N[C@@H](Cc1ccccc1)C(=O)N[C@@H](CC(=O)O)C(=O)N[C@H](C(=O)N[C@H](C(=O)NCC(N)=O)C(C)C)C(C)C (single isomer, unassigned) [DELTORPHIN C]
Ki [1]: > 10 µM
Ki (Mu-type opioid receptor): 0.677 µM

CC(C)[C@H](NC(=O)[C@H](CC(=O)O)NC(=O)[C@H](Cc1c(F)c(F)c(F)c(F)c1F)NC(=O)[C@H](C)NC(=O)[C@@H](N)Cc1ccc(O)cc1)C(=O)N[C@H](C(=O)NCC(N)=O)C(C)C
Ki [1]: > 10 µM
Ki (Mu-type opioid receptor): > 10 µM

H-YAHDVVG-NH2
Ki [1]: > 10 µM
Ki (Mu-type opioid receptor): > 10 µM

Cc1c(C)c(C)c(C[C@H](NC(=O)[C@H](C)NC(=O)[C@@H](N)Cc2ccc(O)cc2)C(=O)N[C@@H](CC(=O)O)C(=O)N[C@H](C(=O)N[C@H](C(=O)NCC(N)=O)C(C)C)C(C)C)c(C)c1C (stereo in doubt; 5a)
Ki [1]: > 10 µM
Ki (Mu-type opioid receptor): > 10 µM

CC(C)[C@H](NC(=O)[C@H](CC(=O)O)NC(=O)[C@H](Cc1cccc(F)c1)NC(=O)[C@H](C)NC(=O)[C@@H](N)Cc1ccc(O)cc1)C(=O)N[C@H](C(=O)NCC(N)=O)C(C)C (stereo in doubt; 2a)
Ki [1]: > 10 µM
Ki (Mu-type opioid receptor): 0.411 µM

Cc1ccc(C[C@H](NC(=O)[C@H](C)NC(=O)[C@@H](N)Cc2ccc(O)cc2)C(=O)N[C@@H](CC(=O)O)C(=O)N[C@H](C(=O)N[C@H](C(=O)NCC(N)=O)C(C)C)C(C)C)cc1
Ki [1]: > 10 µM
Ki (Mu-type opioid receptor): > 10 µM

CC(C)[C@H](NC(=O)[C@H](CC(=O)O)NC(=O)[C@H](Cc1cccs1)NC(=O)[C@H](C)NC(=O)[C@@H](N)Cc1ccc(O)cc1)C(=O)N[C@H](C(=O)NCC(N)=O)C(C)C (H-YA[2Thi]DVVG-NH2)
Ki [1]: > 10 µM
Ki (Mu-type opioid receptor): 0.419 µM

Cc1c(C)c(C)c(C[C@H](NC(=O)[C@H](C)NC(=O)[C@@H](N)Cc2ccc(O)cc2)C(=O)N[C@@H](CC(=O)O)C(=O)N[C@H](C(=O)N[C@H](C(=O)NCC(N)=O)C(C)C)C(C)C)c(C)c1C (stereo in doubt; 5b)
Ki [1]: > 10 µM
Ki (Mu-type opioid receptor): > 10 µM

CC(C)[C@H](NC(=O)[C@H](CC(=O)O)NC(=O)[C@H](Cc1cccnc1)NC(=O)[C@H](C)NC(=O)[C@@H](N)Cc1ccc(O)cc1)C(=O)N[C@H](C(=O)NCC(N)=O)C(C)C (H-YA[3Pal]DVVG-NH2)
Ki [1]: > 10 µM
Ki (Mu-type opioid receptor): 10 µM

CC(C)[C@H](NC(=O)[C@H](CC(=O)O)NC(=O)[C@H](Cc1cccc(F)c1)NC(=O)[C@H](C)NC(=O)[C@@H](N)Cc1ccc(O)cc1)C(=O)N[C@H](C(=O)NCC(N)=O)C(C)C (stereo in doubt; 2b)
Ki [1]: > 10 µM
Ki (Mu-type opioid receptor): 3.48 µM

CC(C)[C@H](NC(=O)[C@H](CC(=O)O)NC(=O)[C@H](Cc1ccccn1)NC(=O)[C@H](C)NC(=O)[C@@H](N)Cc1ccc(O)cc1)C(=O)N[C@H](C(=O)NCC(N)=O)C(C)C (H-YA[2Pal]DVVG-NH2)
Ki [1]: > 10 µM
Ki (Mu-type opioid receptor): 2.93 µM

CC(C)[C@H](NC(=O)[C@H](CC(=O)O)NC(=O)[C@H](Cc1ccc(F)cc1)NC(=O)[C@H](C)NC(=O)[C@@H](N)Cc1ccc(O)cc1)C(=O)N[C@H](C(=O)NCC(N)=O)C(C)C
Ki [1]: > 10 µM
Ki (Mu-type opioid receptor): 10 µM

Source: ChEMBL document CHEMBL1128290, “Opioid receptor binding requirements for the delta-selective peptide deltorphin. I: Phe3 replacement with ring-substituted and heterocyclic amino acids” (J Med Chem, 1995)
